Results taken from patent US20030175438A1, “Treatments of solid substrates to enhance durability of treatments placed thereon” (priority 2002, published 2003).

Columns and labels:
[1] = Bromphenol Blue (BPB) Extraction Method, spectrophotometric at 595 nm (modified CTM 0824), on treated fabric; type: physicochemical; conditions: for Strike Rate - % BPB Extraction: No Boil, Table XIII
Procedure: (§1) Sample Preparation: Fabric samples were obtained from the JoAnn fabric chain and were commercial fabrics. The fabrics were cut into rectangular size and were about 1½ inches by 2 inches, and were treated in 0.15 weight percent active antimicrobial agent placed in an Erlenmeyer flask. The agent used in this example was N, N-dimethyl-N-Octadecyl-3-(trimethoxysilyl)propanaminium chloride. The treatment solutions were allowed to hydrolyze from the trimethoxysilyl form to the trisilanol form before adding the fabrics. This takes only a few minutes to essentially complete. The solution temperature was raised to 100° C. before treating the fabrics for 60 seconds by immersion in the solutions with moderate agitation of the solution within the flask. After removing the samples from the hot solution, they were nip rolled to remove excess liquid. Wet Weight Pickup (WWP) was targeted to 100%. The samples were air dried before testing unless otherwise noted. The Extraction, stated in percent, was measured using the Bromphenol Blue Extraction Method using spectrophotometric determination. This method is CTM 0824, which has been modified for use herein in the following manner. The chlorinated solvent has been eliminated and the wavelength is 595 nm. Further, Dow Corning® A521 has been substituted for the Triton.RTM. X-100 wetting agent of the test. What is measured is the diminution of the BPB Absorbance at 595 nm relative to the BPB standard solution and it is reported in percent Extraction. Antimicrobial efficacy was determined using the CTM-0923 Dynamic Shake Flask Test unless otherwise stated.
The antimicrobial agent used in this example was the same as that used in example 1. The samples were handled the same as in example 1 with the exception of the following. Samples were air and/or oven dried before testing. The % Extraction was measured using the BPB Extraction Method using spectrophotometric determination at 595 nm. If determined, antimicrobial efficacy was determined using the CTM-0923 Dynamic Shake Flask Test. Co-treatments the addition of the fabric to a 0.20 molar solution of the anion plus 0.15 WPA antimicrobial agent. The co-treatment is carried out at 100° C., and the fabric was moderately agitated for 60 seconds. The antimicrobial treatment is the addition of the fabric to a solution of 0.15 WPA antimicrobial agent held at 100° C. with moderate agitation for 60 seconds. Excess solution is removed from the samples, and the WWP is determined by weighing. Boiling was done with 200 milliliters of distilled water in a glass container in a microwave oven. Power setting was 30%, and the solution was gently boiled for 30 minutes. Sample size was nominally 1 gram and fresh water was used for each boiling study. The testing results can be found on Table XIII to XIV, respectively, infra. To differentiate between the application rate of the antimicrobial on the fabric, 25% of the normal sample size, or 0.25 grams of fabric was used to obtain the BPB Extraction values that ranged between 5 and 99%. This yielded values of percent BPB extraction that were in the linear range of the test procedure. Using larger samples creates an inaccurate test.

E. coli = assay: CTM-0923 Dynamic Shake Flask Test (antimicrobial efficacy of treated fabric); type: cell-based; set-up: concentration or dose not given beside the values
Procedure: as §1, with “The fabrics were cut into rectangular size and were about 1½ inches by 2 inches, and were treated in 0.15 weight percent active antimicrobial agent placed in an Erlenmeyer flask. The agent used in this example was N, N-dimethyl-N-Octadecyl-3-(trimethoxysilyl)propanaminium chloride.” left out, “Wet Weight Pickup (WWP) was targeted to 100%.” left out, “A521” left out, “stated. Samples were air dried before testing. The % extraction was measured using the BPB extraction Method using spectrophotometric determination at 595 nm. Antimicrobial efficacy was determined, when applicable, using the ASTM CTM 0923 Dynamic Shake Flask Test. The substrate may be either wet or dry. The testing results can be found on Tables XI and XII, respectively, infra.” for “stated.”

CCCCCCCCCCCCCCCCCC[N+](C)(C)CCC[Si](OC)(OC)OC.[Cl-] [AMT, N, N-dimethyl-N-Octadecyl-3-(trimethoxysilyl)propanaminium chloride]
BOILED IN WATER % EXTRACTION ([1]; 130° C./30 minutes, Table XII): 27% | % BPB EXTRACTION CHANGE ([1]; COTTON, boiled vs not boiled, Table IV): −1% | EXTRACTION CHANGE ([1]; COTTON, boiled vs not boiled, Table VI): 0% | % Extraction @ 595 nm ([1]; NYLON, boiled 30 minutes, Table VI): 11% | % BPB EXTRACTION @ 595 nm ([1]; NYLON, boiled, Table IX): 19% | % BPB EXTRACTION @ 595 nm ([1]; NYLON, not boiled, Table IX): 85% | Boiling Durability % BPB EXTRACTION @ 595 nm ([1]; NYLON, not boiled, Table XVII): 80% | Strike Rate - % BPB Extraction ([1]; Nylon, 0.25 grams of fabric): 8.01% | Strike Rate - % BPB Extraction ([1]; Nylon, treatment at pH = 11): 45.1% | Strike Rate - % BPB Extraction ([1]; PET Staple, treatment at pH = 11): 75.82% | Boiling Durability - % BPB Extraction ([1]; PET, Boil 30 min., Table XIV): 17.9% | Strike Rate - % BPB Extraction ([1]; PET, treatment at pH = 11): 62.57% | % BPB EXTRACTION @ 595 nm ([1]; PET, boiled 30 minutes, Table XV): 36% | % EXTRACTION CHANGE ([1]; PET, boiled vs not boiled, Table XVII): −64% | % BPB EXTRACTION @ 595 nm ([1]; PET, not boiled, Table III): 94% | Strike Rate - % BPB Extraction ([1]; Rayon, 0.25 grams of fabric): 6.94% | Efficacy - % Reduction (E. coli; ACRYLIC/MODACRYLIC, boiled 30 minutes, Table V): 84% | Efficacy - % Reduction (E. coli; ACRYLIC/MODACRYLIC, not boiled, Table V): 90% | Efficacy - % Reduction (E. coli; COTTON, boiled 30 minutes, Table V): 99% | DSF - % REDUCTION (E. coli; COTTON, boiled 30 minutes, Table VIII): 99% | DSF - % REDUCTION (E. coli; COTTON, boiled, Table X): 93% | Efficacy - % Reduction (E. coli; COTTON, not boiled, Table V): 99% | DSF - % REDUCTION (E. coli; COTTON, not boiled, Table VIII): 99% | DSF - % REDUCTION (E. coli; COTTON, not boiled, Table X): 89% | Efficacy - % Reduction (E. coli; NYLON, boiled 30 minutes, Table II): 84% | Efficacy - % Reduction (E. coli; NYLON, boiled 30 minutes, Table V): 19% | DSF - % REDUCTION (E. coli; NYLON, boiled 30 minutes, Table VIII): 22% | DSF - % REDUCTION (E. coli; NYLON, boiled, Table X): 99% | Efficacy - % Reduction (E. coli; NYLON, not boiled, Table II): 90% | Efficacy - % Reduction (E. coli; NYLON, not boiled, Table V): 99% | DSF - % REDUCTION (E. coli; NYLON, not boiled, Table VIII): 99% | DSF - % REDUCTION (E. coli; NYLON, not boiled, Table X): 99% | Efficacy - % Reduction (E. coli; PET, boiled 30 minutes, Table II): 99% | DSF - % REDUCTION (E. coli; PET, boiled 30 minutes, Table VIII): 91% | DSF - % REDUCTION (E. coli; PET, boiled, Table X (untreated control 50)): 74% | Efficacy - % Reduction (E. coli; PET, not boiled, Table II): 99% | DSF - % REDUCTION (E. coli; PET, not boiled, Table VIII): 99% | DSF - % REDUCTION (E. coli; PET, not boiled, Table X (untreated control 50)): 79% | Efficacy - % Reduction (E. coli; RAYON, boiled 30 minutes, Table II): 19% | DSF - % REDUCTION (E. coli; RAYON, boiled 30 minutes, Table VIII): 94% | DSF - % REDUCTION (E. coli; RAYON, boiled, Table X): 99% | Efficacy - % Reduction (E. coli; RAYON, not boiled, Table II): 99% | DSF - % REDUCTION (E. coli; RAYON, not boiled, Table VIII): 99% | DSF - % REDUCTION (E. coli; RAYON, not boiled, Table X): 99%
